PubChem BioAssay AID1996
In brackets after ≈: the same amount, converted by molar mass.

Settings: buffer; pH 7.4; 200.0 µM

SMILES | solubility kinetic
O=C(NCc1ccccc1Br)c1ccc2c(c1)OCCO2 | 11.6 µg/mL (≈ 33.3 µM)
COc1ccc(NC(=O)CSc2nccn2Cc2ccco2)c(OC)c1 | 51.9 µg/mL (≈ 139 µM)
O=C(CCC(=O)c1ccc(Cl)s1)Nc1ncccc1O | > 46.6 µg/mL
CSc1ccccc1NC(=O)COC(=O)Cc1ccsc1 | > 48.2 µg/mL
CCCCOC(=O)C1=C(C)NC(=O)NC1c1ccccc1 (stereo unspecified) | 13.5 µg/mL (≈ 46.8 µM)
C=C(c1ccccc1O)n1ccnc1 | > 27.9 µg/mL
O=C(COc1ccccc1[N+](=O)[O-])NC1CC1 | 29.1 µg/mL (≈ 123 µM)
Cc1nc2sc(C(=O)c3ccccc3)c(N)c2c(C)c1C | < 0.3 µg/mL
Cc1cc(C)c(C(=O)N2CCCC(Nc3ccc(F)cc3)C2)o1 (stereo unspecified) | > 47.5 µg/mL
CCCOC(=O)CC1C(=O)NCCN1Cc1cc(OC)cc(OC)c1 (stereo unspecified) | > 52.6 µg/mL
CN1C(=O)C(=O)/C(=C(/O)c2ccccc2)C1c1ccc([N+](=O)[O-])cc1 (stereo unspecified) | > 50.7 µg/mL
Cc1ccc(C(=O)O)cc1NC(=O)Nc1cccc2ccccc12 | > 48.1 µg/mL
O=C(NCC(=O)N1CCCC1)c1ccccc1F | > 37.5 µg/mL
CS(=O)(=O)N(CC(=O)NC1CCCC1)C1CCCCC1 | > 45.4 µg/mL
O=C1CC(=O)N(c2ccccc2F)C(=O)N1 | > 33.3 µg/mL
CCCN1C(=O)C2(SC(NC(C)=O)=NN2C(C)=O)c2cc(C)cc(C)c21 (stereo unspecified) | > 56.2 µg/mL
CCN(CC)CC(=O)Nc1c(C#N)cnn1-c1ccccc1 | > 44.6 µg/mL
COc1ccc(CNC(=O)CN(C)CC(=O)Nc2ccccc2Br)cc1 | > 63 µg/mL
O=C1CN(C(=O)c2ccccc2Cl)c2ccccc2N1 | > 43 µg/mL
CCc1ccc(C2C(C#N)=C(N)Oc3cc(N)ccc32)cc1 (stereo unspecified) | 2.4 µg/mL (≈ 8.24 µM)
N#CC(=C=[N-])/C=C(\C(=O)c1ccccc1)[n+]1ccccc1 | > 41 µg/mL
N#Cc1ccccc1Oc1ccccc1C=O | 31.6 µg/mL (≈ 142 µM)
Cc1ccc(NC(=O)CC(N)=S)cc1 | 30.7 µg/mL (≈ 147 µM)
Cc1ccc(/C=C(\C#N)C(=O)NCc2ccco2)o1 | 9 µg/mL (≈ 35.1 µM)
NS(=O)(=O)c1ccc(CCNCC(=O)NC2CC2)cc1 | 26.3 µg/mL (≈ 88.4 µM)

SMILES | solubility kinetic
S=C(NCC1CCCO1)c1ccc(Br)cc1 (stereo unspecified) | 39 µg/mL (≈ 130 µM)
CCCCCc1nnc(NC(=O)c2ccc(=O)n(C)n2)s1 | > 46.1 µg/mL
CCCc1cc(NCCCO)n2c(nc3ccccc32)c1C#N | 3.3 µg/mL (≈ 10.7 µM)
O=S(=O)(Nc1nc2ccccc2s1)c1ccc(Cl)nc1 | > 48.9 µg/mL
Cc1cccc(C)c1OP(N)(=O)Oc1c(C)cccc1C | 10.8 µg/mL (≈ 35.4 µM)
O=C(Cc1ccc(Cl)cc1)Nc1cc(Cl)ccn1 | 3.5 µg/mL (≈ 12.4 µM)
CCc1ccc(N2CC(C(=O)OC)CC2=O)cc1 (stereo unspecified) | > 37.1 µg/mL
O=C(c1cc(O)c(O)c([N+](=O)[O-])c1)c1ccccc1F | > 41.6 µg/mL
CC(C)[C@H](NC(=O)c1ccccc1F)C(=O)OCC(=O)NC1CC1 | 34.3 µg/mL (≈ 102 µM)
CC(C)(C)N1CC(C(=O)Nc2ccc(S(N)(=O)=O)cc2)CC1=O (stereo unspecified) | > 50.9 µg/mL
Cc1c(C(=O)Nc2ccc3c(c2)OCO3)oc2ccccc12 | 2.9 µg/mL (≈ 9.82 µM)
CCSc1nc2cc(S(=O)(=O)N3CCOCC3)ccc2o1 | > 49.3 µg/mL
COC(OC)C(C)NC(=O)NC(=O)c1ccccc1Cl (stereo unspecified) | 39.2 µg/mL (≈ 130 µM)
CN(C)CCCNc1nc(N)c([N+](=O)[O-])c(NCc2ccccc2)n1 | 44.3 µg/mL (≈ 128 µM)
COC(CSc1ncnc2c1oc1nc3c(cc12)COC(C)(C)C3)OC | 54.6 µg/mL (≈ 145 µM)
CC(C)[C@H](NC(=O)c1ccccc1F)C(=O)OCC(=O)NC(=O)NC1CCCCC1 | 51.3 µg/mL (≈ 122 µM)
CNC(=O)Cn1c(C)cc(=O)c2cccc(C)c21 | > 36.6 µg/mL
COc1ccc(/C=C/C(=O)OCC(=O)NCCCc2ccccc2)cc1OC | 20 µg/mL (≈ 52.2 µM)
COC(=O)N1CCN(c2ccc(C)c(C)c2)CC1 | 32.1 µg/mL (≈ 129 µM)
Nc1ncc2[nH]cnc2n1.O=[N+]([O-])O | > 29.7 µg/mL
COc1ccc(Nc2oc(-c3ccccc3F)nc2C#N)cc1 | < 0.2 µg/mL
O=Cc1sc([O-])nc1-[n+]1ccc2ccccc2c1 | 5.1 µg/mL (≈ 19.9 µM)
CCOC(=O)C1=C(Nc2ccc(Cl)cc2)OCC1=O | > 42.3 µg/mL
COc1ccc(-c2csc3nc[nH]c(=O)c23)cc1OC | 39.4 µg/mL (≈ 137 µM)
COC(=O)c1cccc(NC(=O)c2cnccn2)c1 | 9.5 µg/mL (≈ 36.9 µM)

SMILES | solubility kinetic
COc1cccc(NC(=S)NC(=O)/C=C/c2ccco2)c1 | 11.2 µg/mL (≈ 37 µM)
CCCC(=O)Nc1nc(-c2ccc(Cl)s2)cs1 | 1.5 µg/mL (≈ 5.23 µM)
CN(Cc1ccccc1)C(=O)c1cc(=O)[nH]c2ccccc12 | > 43.9 µg/mL
Cc1ccccc1CC(=O)N1CC(C)OC(C)C1 (stereo unspecified) | > 37.1 µg/mL
CC(C)n1cc(NC(=O)COc2ccccc2Cl)cn1 | > 44.1 µg/mL
CSc1cccc(NC(=O)c2[nH]c(C)c(C(C)=O)c2C)c1 | 7.3 µg/mL (≈ 24.1 µM)
CC[C@H](CO)NCCN[C@H](CC)CO.Cl | > 41.6 µg/mL
CC(Oc1ccc(C#N)cc1)C(=O)N1CC=C(c2ccccc2)CC1 (stereo unspecified) | 38.4 µg/mL (≈ 116 µM)
CN(Cc1ccccc1F)C(=O)c1ccc(Oc2ccccc2)cc1 | 4.2 µg/mL (≈ 12.5 µM)
CCN1CCN(C(=O)/C=C/c2cccc(Cl)c2)CC1 | 40 µg/mL (≈ 143 µM)
CC(C)(Oc1ccc(Cl)cc1)C(=O)N1CCC(C(N)=O)CC1 | 48.7 µg/mL (≈ 150 µM)
CCNC(=O)C(C)Oc1ccc(Cl)cc1Cl (stereo unspecified) | > 39.3 µg/mL
O=C(Nc1ncc2c(n1)-c1ccccc1OC2)c1cccc([N+](=O)[O-])c1 | 1.4 µg/mL (≈ 4.02 µM)
CCCCCCCCN=Cc1c(O)[nH]c(=O)[nH]c1=O | 1 µg/mL (≈ 3.74 µM)
CC(NC(=O)c1ccccc1F)c1ccccc1 (stereo unspecified) | > 36.5 µg/mL
COc1ccc(C)cc1NC(=O)c1ccc(OCc2c(C)noc2C)cc1 | 0.9 µg/mL (≈ 2.46 µM)
Cc1ccccc1C(=O)Nc1cccc(C(=O)Nc2ccccc2C(=O)O)c1 | > 56.2 µg/mL
CCOC(=O)COc1nc(-c2ccco2)cc(-c2ccco2)c1C#N | 2.8 µg/mL (≈ 8.28 µM)
Cc1ccsc1CNCC(O)c1ccccc1.Cl (stereo unspecified) | > 42.6 µg/mL
COc1ccc(CNC(=O)c2cccc(NC(=O)CC3SC(N4CCCCC4)=NC3=O)c2)cc1 (stereo unspecified) | 7.6 µg/mL (≈ 15.8 µM)
Cc1cc(C(=O)COC(=O)c2cnccn2)c(C)n1-c1ccc(Br)cc1 | 4.1 µg/mL (≈ 9.9 µM)
O=C(NCc1cccc(Cl)c1)c1cc(=O)[nH]c2ccccc12 | 1.8 µg/mL (≈ 5.76 µM)
CC1CC1C(=O)OCC(=O)N(C)CC(=O)Nc1ccc(F)cc1 (stereo unspecified) | > 48.4 µg/mL
CC(=O)C1=C(O)C(=O)N(Cc2ccccc2)C1c1ccc([N+](=O)[O-])cc1 (stereo unspecified) | > 52.9 µg/mL
Cc1cccc(OC(C)C(=O)N2CCCN(C)CC2)c1C (stereo unspecified) | > 43.6 µg/mL

SMILES | solubility kinetic
Cc1ccc(/C=N\NC(=O)C2CC(=O)N(c3ccccc3)C2)o1 (stereo unspecified) | > 46.7 µg/mL
O=C(O)CCC(=O)Nc1cccc(C(=O)c2ccccc2)c1 | > 44.6 µg/mL
O=C(Nc1ccc(Cl)cc1Cl)c1csc(-c2cccnc2)n1 | 1.6 µg/mL (≈ 4.57 µM)
O=c1cc(-c2ccccc2)c2cc3c(cc2[nH]1)OCCO3 | 1.4 µg/mL (≈ 5.01 µM)
O=C(NCc1ccc2c(c1)OCO2)Nc1ccc2ccccc2c1 | 1.3 µg/mL (≈ 4.06 µM)
O=C1CN(C(=O)c2ccccc2C(=O)O)c2ccccc2N1 | > 44.4 µg/mL
CCC(Oc1ccccc1)C(=O)NCCCN1CCOCC1 (stereo unspecified) | > 46 µg/mL
CC(=O)c1cc(CN2CCN(CCC(C)C)C(CCO)C2)cs1 (stereo unspecified) | > 50.8 µg/mL
COc1cccc(C(=O)NCCNC(=O)c2ccc(C)nc2)c1 | 45.7 µg/mL (≈ 146 µM)
CCOc1ccc(NC(=O)c2cc3ccccc3cc2OC)cc1 | < 0.7 µg/mL
O=C(Cc1cccc(Cl)c1)Nc1ccc(Br)cc1 | 2.9 µg/mL (≈ 8.93 µM)
O=C(NC(=S)Nc1cccnc1)c1cccs1 | 10.4 µg/mL (≈ 39.5 µM)
Cc1sc2nc(COC(=O)c3c(F)cccc3F)[nH]c(=O)c2c1C | 4.2 µg/mL (≈ 12 µM)
CN(C)c1ccc(CNS(=O)(=O)c2csc(C(N)=O)c2)cc1 | > 50.9 µg/mL
O/N=C/c1ccc2cccc(OCc3ccccc3)c2n1 | 2.1 µg/mL (≈ 7.55 µM)
CCN(CC(=O)NCc1cccs1)C(=O)c1ccc(C)o1 | > 46 µg/mL
CCn1c(=O)cc(N2CCN(C(=O)c3ccco3)CC2)[nH]c1=O | > 47.7 µg/mL
O=C(c1cc2cc(Cl)ccc2[nH]1)N1CCN(c2ccccc2F)CC1 | < 0.3 µg/mL
O=C(CC1CCCC1)Nc1ccc(Cl)c(S(=O)(=O)N2CCOCC2)c1 | 54.7 µg/mL (≈ 141 µM)
O=S(=O)(Cc1ccc(Cl)cc1)N1CCCCCC1 | 4.5 µg/mL (≈ 15.6 µM)
Cc1cc(NC(=O)c2ccc3c(c2)C(=O)N(CC(C)C)C3=O)no1 | 2.1 µg/mL (≈ 6.42 µM)
O=S1(=O)N=C(Nc2ccc(O)cc2)c2ccccc21 | 11 µg/mL (≈ 40.1 µM)
COC(=O)c1c(C)[nH]c(C=O)c1-c1ccccc1 | > 36.5 µg/mL
Cn1c(N)c(C(=O)CSc2nc(N)cc(N)n2)c(=O)n(C)c1=O | 3 µg/mL (≈ 8.89 µM)
O=C(N/C=C/c1ccco1)Nc1cccc(Cl)c1 | 31.3 µg/mL (≈ 119 µM)

SMILES | solubility kinetic
CC1CC(C)CN(C(=O)COC(=O)c2cncc(Br)c2)C1 (stereo unspecified) | 42.4 µg/mL (≈ 119 µM)
O=C(NCCCO)C(=O)Nc1cc2c3c(c1)CCC(=O)N3CCC2 | 48.8 µg/mL (≈ 147 µM)
CCN1CCN(C(=O)C2CC(=O)N(c3ccc(Cl)cc3)C2)CC1 (stereo unspecified) | > 50.4 µg/mL
C=CCn1c(C)nnc1SCC(=O)NC1CC1 | > 37.9 µg/mL
CC(=O)Nc1c(-c2ccc(Cl)cc2)c(=O)c2ccccc2n1C | 14.8 µg/mL (≈ 45.3 µM)
COc1cccc(-n2cn[nH]c2=S)c1 | > 31.1 µg/mL
Cc1ccc(C(=O)NCCCNC(=O)c2ccccn2)cc1 | > 44.6 µg/mL
c1ccc2c(c1)Cc1cc3ccccc3nc1-2 | 4.3 µg/mL (≈ 19.8 µM)
Cc1cc(C)c(NC(=O)C2CC(=O)N(C3CCCC3)C2)c(C)c1 (stereo unspecified) | > 47.2 µg/mL
CCCC(=O)Nc1cc2c3c(c1)C(C)C(=O)N3CCC2 (stereo unspecified) | 38 µg/mL (≈ 140 µM)
CN(C)c1ccc(/C=C/c2cccc[n+]2[O-])cc1 | > 36 µg/mL
COc1cccc(C(=O)Nc2c[nH]c(=O)[nH]c2=O)c1 | 36.1 µg/mL (≈ 138 µM)
O=C(Cc1ccc(Cl)cc1)N1CCc2ccccc2C1 | 37.2 µg/mL (≈ 130 µM)
O=C(Nc1ccc(Cl)cc1F)C1CC(=O)N(Cc2ccco2)C1 (stereo unspecified) | > 50.5 µg/mL
Cn1cc(S(=O)(=O)N2CCCC2)cc1C(=O)O | > 38.7 µg/mL
Cc1cc(NC(=O)c2ccc([N+](=O)[O-])cc2)n(C)n1 | > 39 µg/mL
COCCSc1ncnc2c1oc1nc3c(cc12)COC(C)(C)C3 | 43 µg/mL (≈ 124 µM)
CCC(C)[C@H](NC(=O)Nc1ccc(S(N)(=O)=O)cc1)C(=O)OC (stereo partly specified) | > 51.5 µg/mL
O=C(Nc1ccccc1Cl)c1sccc1-c1ccccc1 | < 0.7 µg/mL
Cc1ccc2c(c1)Cc1nc3ccccc3nc1-2 | 1.9 µg/mL (≈ 8.18 µM)
CC1CCCC(NC(=O)CN2C(=O)COc3ccccc32)C1C (stereo unspecified) | 6.4 µg/mL (≈ 20.2 µM)
